From patent US11672870B2, “Transduction” (The University of Nottingham, priority 2013, dated 2023)

Experiments:
[1] = system: NIH3t3: LSL-eGFP cells; experiment: Cre recombination assay; format: cell-based, mouse; conditions: drug pre-treatment and co-treatment (FIG. 17a-d)
[2] = system: NIH3t3 cells; experiment: Fluorescence delivery assay with membrane depletion, GAG competition, Heparinase, serum or Sodium Chlorate; format: cell-based, mouse; conditions: for effect on cell-surface binding and transduction of HETD proteins: free GAG competition (FIG. 3b); for inhibition of PTD-only protein transduction: free GAG competition (FIG. 12)
Source text: For flow cytometry, cells were trypsinized (unless otherwise stated), fixed in 4% (w/v) PFA, resuspended in PBS (pH7.5) and analysed on a MoFlo™ DP (DAKO) Flow Cytometer using a 488 nm […] laser. (50,000 cells; gated on live cells by forward/side scatter). Median fluorescence was used for statistical analyses with background from unlabelled/transduced cells subtracted and values taken as ratios to the experimental control. Data shown are three experiments of triplicate samples. For microscopy, cultures were rinsed twice with PBS and imaged with inverted fluorescence microscope (Nikon Eclipse TS100).
For testing multiple cell lines we plated 2=10^5 cells/well (in 12-well plates) onto the surface relevant to the tested cell line, attached cells for 2 hours and transduced with recombinant proteins in cell-type specific growth media. After transduction cells were washed with PBS, trypsinized and fixed in 4% PFA for flow cytometry. For membrane localization, intracellular localisation or both we plated cells as above, but cultures pre-incubated in serum-free media for 1 hour before transduction. Membrane localization to assess cell interaction was achieved by a short transduction of 1 hour in serum-free media. Intracellular localization to assess transduction efficiency was achieved by a short transduction of 1 hour followed by 5 hour incubation in serum-free media only. Cell association (membrane and intracellular levels) were assessed by transducing cells for 6 hours in serum-free medium. For flow cytometry cells were trypsinized, washed and fixed in 4% PFA and for microscopy cells were imaged live after washing in PBS. For trypsin depletion of cell-surface proteins, cells were treated with trypsin/EDTA (Invitrogen) or EDTA-based cell dissociation solution (CDS) (Sigma) for 15 minutes at 37° C., followed by washes with PBS and 1× soybean trypsin inhibitor (10 mg/ml in PBS; Sigma). Cells were then treated with proteins for 1 hour at 37° C. in serum-free medium. For detergent depletion of cell membranes, cells were treated with PBS (pH7.5) containing 0.1% (v/v) Triton-X100 (Tx100) for 10 minutes at 37° C., followed by washes with PBS. Cells were then treated with proteins for 1 hour at 37° C. in serum-free medium. For GAG-treatment cells were pre-treated with GAGs in DMEM without serum before transduction and were included in the transduction media. This included heparin and chondroitin sulphate A, B and C (0-50 μg/ml).
For Heparin binding activity we incubated 1 ml of recombinant proteins (20 μg/ml) in DMEM with 50 μl of PBS-washed Heparin-sepharose beads (Sigma) for 1 hour at 37° C. shaking at 100 rpm. Media pre- and post-incubation was compared by fluorometry. For Heparinase treatment, we plated NIH3t3 cells at 2×10^5/well (in 12-well plates) and were pre-incubated in serum-free media for 1 hour with Heparinase III (0-1 U/ml) or Heparin (0-50 μg/ml). Cells were then washed and transduced with mR or P21-mR-8R (20 μg/ml in serum-free media or media with different FCS concentrations) containing Heparinase III or Heparin for 12 hours. FCS was depleted of P21-binding material by affinity chromatography. This was achieved by incubating 50 ml FCS with 2 ml Glutathione-Sepharose resin (GE Healthcare) pre-absorbed with GST-P21 protein expressed in Escherichia coli.

[3] = system: NIH 3t3 fibroblast cells; experiment: Iron oxide nanoparticle uptake (Prussian blue, iron assay); format: cell-based
Method: Confluent cells were split into 12 well plates at 200,000 cells/well and incubated for 24 hours at 37° C. After 24 hours 50 μg of Nanomag-D iron oxide nanoparticles (250 nm) and either 0, 0.01, 0.05, 0.1, 0.5, 2, 1, 5 and 10 μM of cell penetrating peptide were added to the cells with either 10% FCS DMEM or serum free DMEM media and left for 24 hours for iron nanoparticles to be internalised. After incubation cells were washed in PBS to remove excess nanoparticles then harvested for qualitative Prussian blue staining, quantitative colorimetric iron assay or fluorescence activated flow cytometry.
Cells were labelled then fixed in 4% (w/v) PFA for 15-20 minutes at 4° C. A staining solution of 2.5% potassium ferrocyanide in 2.5% HCL was added to cells and incubated for an hour at room temperature. If nanoparticles were present a blue stain appeared which is proportional to the concentration of iron.
Quantitative Colorimetric Iron Assay Cells were labelled, trypsinised and pelleted then all media removed. 40 μl of 37% HCL was added to the cells and heated at 70° C. until dissolved, then neutralised with 50 μl of NaOH. Those samples containing a high concentration of iron were diluted 1:10 then 40 μl of Quantichrom working reagent was added and the instructions in the Quantichrom iron assay followed.

With `N=C(N)NC(=O)c1nc(Cl)c(N)nc1N` [Amiloride] the “effect on functional delivery of HETD-tagged Cre” value (from here on “effect on functional delivery”) [1] was “dose-dependent reduction”.

In the case of `C=C1[C@@H](C)[C@H]2[C@H](Cc3ccccc3)NC(=O)[C@]23[C@H](OC(C)=O)/C=C/[C@@](C)(O)C(=O)[C@@H](C)C/C=C/[C@H]3[C@@H]1O` [Cytochalasin D], the “effect on functional delivery” value [1] is reported as “dose-dependent reduction”.

With `[Na+].[O-][Cl+2]([O-])[O-]` [Sodium Chlorate] the “prevention of HETD-mediated protein delivery” value ([2]; inhibitor of HS synthesis (FIG. 14)) was ~7.6 fold.

With `C[C@@H]1[C@H](O)[C@@H](C)/C=C/C=C/CC/C=C/C=C/C=C/C=C/C(O[C@H]2O[C@H](C)[C@@H](O)[C@H](N)[C@@H]2O)CC2O[C@](O)(CC(O)C(O)CCC(O)CC(O)CC(O)CC(=O)O[C@H]1C)CC(O)C2C(=O)O` (stereo partly drawn) [nystatin] the “effect on functional delivery” value [1] was “dose-dependent inhibition”.

For Chondroitin sulphate [CS-A], the “effect on cell-surface binding and transduction of HETD proteins” value (“effect … of HETD proteins” below) [2] was “little effect”.

For Chondroitin sulphate [CS-B], the “effect … of HETD proteins” value [2] was “little effect” and the “inhibition of PTD-only protein transduction” value [2] was 2.4 fold.

Chondroitin sulphate [CS-C] was tested, and the “effect … of HETD proteins” value [2] was “little effect” and the “inhibition of PTD-only protein transduction” value [2] was 4.1 fold.

For Heparin, the “effect on P21 binding and nanoparticle uptake” value ([3]; added to media) was “inhibitor for the binding”, the “inhibition of PTD-only protein transduction” value [2] was 8.1 fold and the “inhibition of transduction of HETD proteins” value ([2]; free GAG in media, P21-mR-8R 20 μg/ml (FIG. 3)) was 99.8±2.1%.

“Methyl-β-cyclodextrin [methyl-b-cyclodextrin]” was tested, and the “effect on functional delivery” value [1] was “dose-dependent inhibition”.

dextran was tested, and the “decrease in nanoparticle uptake” value ([3]; increasing concentration added to media, 1 μM P218R) was 18%.

B1: heparinase III: HS-lyase enzyme (protein, UniProt Q59289 25-659, looked up)
Heparin-sulfate lyase: QSSSITRKDFDHINLEYSGLEKVNKAVAAGNYDDAAKALLAYYREKSKAREPDFSNAEKPADIRQPIDKVTREMADKALVHQFQPHKGYGYFDYGKDINWQMWPVKDNEVRWQLHRVKWWQAMALVYHATGDEKYAREWVYQYSDWARKNPLGLSQDNDKFVWRPLEVSDRVQSLPPTFSLFVNSPAFTPAFLMEFLNSYHQQADYLSTHYAEQGNHRLFEAQRNLFAGVSFPEFKDSPRWRQTGISVLNTEIKKQVYADGMQFELSPIYHVAAIDIFLKAYGSAKRVNLEKEFPQSYVQTVENMIMALISISLPDYNTPMFGDSWITDKNFRMAQFASWARVFPANQAIKYFATDGKQGKAPNFLSKALSNAGFYTFRSGWDKNATVMVLKASPPGEFHAQPDNGTFELFIKGRNFTPDAGVFVYSGDEAIMKLRNWYRQTRIHSTLTLDNQNMVITKARQNKWETGNNLDVLTYTNPSYPNLDHQRSVLFINKKYFLVIDRAIGEATGNLGVHWQLKEDSNPVFDKTKNRVYTTYRDGNNLMIQSLNADRTSLNEEEGKVSYVYNKELKRPAFVFEKPKKNAGTQNFVSIVYPYDGQKAPEISIRENKGNDFEKGKLNLTLTINGKQQLVLVP
With B1 the “inhibition of GET/HETD-mediated transduction” value ([2]; at 1 U/ml, 6 h protocol) was 97.2±3.4%.
